Source: ChEMBL document CHEMBL1255295, “Convergent in vivo and in vitro selection of ceftazidime resistance mutations at position 167 of CTX-M-3 beta-lactamase in hypermutable Escherichia coli strains” (2008)
Values after ≈ are worked out from the molar mass of the structure shown.

What was measured:
[1] = test system: Escherichia coli; experiment: Antimicrobial activity against ceftazidime-resistant Escherichia coli Irk2320 harboring beta-lactamase CTX-M-42 Pro167Thr mutant gene by agar dilution method; type: functional
[2] = test system: Escherichia coli; experiment: Antimicrobial activity against ceftazidime-resistant Escherichia coli Irk2322 harboring beta-lactamase CTX-M-42 Pro167Thr mutant gene by agar dilution method; type: functional
[3] = test system: Escherichia coli; experiment: Antimicrobial activity against Escherichia coli AB14156 harboring beta-lactamase CTX-M-42 Pro167Thr mutant gene by agar dilution method; type: functional
[4] = test system: Escherichia coli; experiment: Antimicrobial activity against Escherichia coli EPI300 harboring pCC1 carrying beta-lactamase CTX-M-3 gene by agar dilution method; type: functional
[5] = test system: Escherichia coli; experiment: Antimicrobial activity against Escherichia coli EPI300 harboring pCC1 carrying beta-lactamase CTX-M-42 Pro167Thr mutant gene by agar dilution method; type: functional
[6] = test system: Escherichia coli; experiment: Antimicrobial activity against Escherichia coli EPI300 transformant harboring pCC1 by agar dilution method; type: functional
[7] = test system: Escherichia coli; experiment: Antimicrobial activity against Escherichia coli Irk1224 harboring beta-lactamase CTX-M-3 by agar dilution method; type: functional
[8] = test system: Escherichia coli; experiment: Antimicrobial activity against ceftazidime-resistant Escherichia coli Irk2320 harboring beta-lactamase CTX-M-42 Pro167Thr mutant gene by agar dilution method in presence of beta-lactamase inhibitor clavulanic acid
[9] = test system: Escherichia coli; experiment: Antimicrobial activity against ceftazidime-resistant Escherichia coli Irk2322 harboring beta-lactamase CTX-M-42 Pro167Thr mutant gene by agar dilution method in presence of beta-lactamase inhibitor clavulanic acid
[10] = test system: Escherichia coli; experiment: Antimicrobial activity against Escherichia coli AB14156 harboring beta-lactamase CTX-M-42 Pro167Thr mutant gene by agar dilution method in presence of beta-lactamase inhibitor clavulanic acid
[11] = test system: Escherichia coli; experiment: Antimicrobial activity against Escherichia coli EPI300 harboring pCC1 carrying beta-lactamase CTX-M-3 by agar dilution method in presence of beta-lactamase inhibitor clavulanic acid
[12] = test system: Escherichia coli; experiment: Antimicrobial activity against Escherichia coli EPI300 harboring pCC1 carrying beta-lactamase CTX-M-42 Pro167Thr mutant gene by agar dilution method in presence of beta-lactamase inhibitor clavulanic acid
[13] = test system: Escherichia coli; experiment: Antimicrobial activity against Escherichia coli EPI300 harboring plasmid pCC1 by agar dilution method in presence of beta-lactamase inhibitor clavulanic acid
[14] = test system: Escherichia coli; experiment: Antimicrobial activity against Escherichia coli Irk1224 harboring beta-lactamase CTX-M-3 by agar dilution method in presence of beta-lactamase inhibitor clavulanic acid
[15] = test system: Escherichia coli; experiment: Antimicrobial activity against Escherichia coli Irk1224 type 2 mutant harboring beta-lactamase CTX-M-3 Ser167 mutant gene by agar dilution method; type: functional
[16] = test system: Escherichia coli; experiment: Antimicrobial activity against Escherichia coli Irk1224 type 3 mutant harboring beta-lactamase CTX-M-3 Lys136 mutant gene by agar dilution method; type: functional
[17] = test system: Escherichia coli; experiment: Antimicrobial activity against Escherichia coli GM2995 harboring plasmid pCC1 carrying beta-lactamase CTX-M-3 gene by agar dilution method; type: functional
[18] = test system: Escherichia coli; experiment: Antimicrobial activity against Escherichia coli GM2995 harboring plasmid pCC1 carrying beta-lactamase CTX-M-3 from by agar dilution method; type: functional
[19] = test system: Escherichia coli; experiment: Antimicrobial activity against Escherichia coli GM2995 harboring plasmid pCC1 carrying beta-lactamase CTX-M-3 Ser167 mutant gene by agar dilution method
[20] = test system: Escherichia coli; experiment: Antimicrobial activity against Escherichia coli Irk1224 type 1 mutant harboring beta-lactamase CTX-M-3 by agar dilution method; type: functional
[21] = test system: Escherichia coli; experiment: Antimicrobial activity against Escherichia coli EPI300 Irk1224 type 1 mutant harboring beta-lactamase CTX-M-3 gene by agar dilution method; type: functional
[22] = test system: Escherichia coli; experiment: Antimicrobial activity against Escherichia coli EPI300 Irk1224 type 2 mutant harboring beta-lactamase CTX-M-3 Ser167 mutant gene by agar dilution method
[23] = test system: Escherichia coli; experiment: Antimicrobial activity against Escherichia coli EPI300 Irk1224 type 3 mutant harboring CTX-M-3 beta-lactamase Lys136 mutant gene by agar dilution method
[24] = test system: Escherichia coli; experiment: Antimicrobial activity against Escherichia coli EPI300 harboring GM2995 pCC1 carrying beta-lactamase CTX-M-3 gene by agar dilution method; type: functional
[25] = test system: Escherichia coli; experiment: Antimicrobial activity against Escherichia coli EPI300 harboring GM2995 pCC1 carrying beta-lactamase CTX-M-3 Ser167 mutant gene by agar dilution method
[26] = test system: Escherichia coli; experiment: Antimicrobial activity against Escherichia coli EPI300 harboring GM2995 pCC1-1224 carrying CTX-M-3 beta-lactamase gene from by agar dilution method; type: functional

SMILES | MIC [1] | MIC [2] | MIC [3] | MIC [4] | MIC [5] | MIC [6] | MIC [7] | MIC [8] | MIC [9] | MIC [10] | MIC [11] | MIC [12] | MIC [13] | MIC [14] | MIC [15] | MIC [16] | MIC [17] | MIC [18] | MIC [19] | MIC [20] | other results
CO/N=C(\C(=O)N[C@@H]1C(=O)N2C(C(=O)[O-])=C(C[N+]3(C)CCCC3)CS[C@H]12)c1csc(N)n1 | 1 µg/mL (≈ 2.08 µM) | 1 µg/mL (≈ 2.08 µM) | 1 µg/mL (≈ 2.08 µM) | 0.5 µg/mL (≈ 1.04 µM) | 0.25 µg/mL (≈ 0.52 µM) | 0.06 µg/mL (≈ 0.125 µM) | 32 µg/mL (≈ 66.6 µM) | – | – | – | – | – | – | – | – | – | – | – | – | – | –
CC1(C)S[C@@H]2[C@H](NC(=O)[C@H](N)c3ccc(O)cc3)C(=O)N2[C@H]1C(=O)O [AMOXICILLIN] | 16 µg/mL (≈ 43.8 µM) | 16 µg/mL (≈ 43.8 µM) | 16 µg/mL (≈ 43.8 µM) | 8 µg/mL (≈ 21.9 µM) | 8 µg/mL (≈ 21.9 µM) | 2 µg/mL (≈ 5.47 µM) | 32 µg/mL (≈ 87.6 µM) | 8 µg/mL | 8 µg/mL | 8 µg/mL | 4 µg/mL | 4 µg/mL | 1 µg/mL | 16 µg/mL | – | – | – | – | – | – | –
CC1(C)S[C@@H]2[C@H](NC(=O)[C@H](N)c3ccccc3)C(=O)N2[C@H]1C(=O)O [AMPICILLIN] | ≥ 256 µg/mL | ≥ 256 µg/mL | ≥ 256 µg/mL | ≥ 256 µg/mL | ≥ 256 µg/mL | – | ≥ 256 µg/mL | – | – | – | – | – | – | – | ≥ 256 µg/mL | ≥ 256 µg/mL | ≥ 256 µg/mL | ≥ 256 µg/mL | 128 µg/mL (≈ 366 µM) | ≥ 256 µg/mL | MIC [21]: ≥ 256 µg/mL; MIC [22]: 128 µg/mL (≈ 366 µM); MIC [23]: 32 µg/mL (≈ 91.6 µM); MIC [24]: ≥ 256 µg/mL; MIC [25]: 128 µg/mL (≈ 366 µM); MIC [26]: ≥ 256 µg/mL
CO/N=C(\C(=O)N[C@@H]1C(=O)N2C(C(=O)O)=C(COC(C)=O)CS[C@H]12)c1csc(N)n1 [CEFOTAXIME] | – | – | – | – | – | – | – | 4 µg/mL | 4 µg/mL | 4 µg/mL | 4 µg/mL | 4 µg/mL | 4 µg/mL | 4 µg/mL | 64 µg/mL (≈ 141 µM) | 64 µg/mL (≈ 141 µM) | 4 µg/mL (≈ 8.78 µM) | ≥ 256 µg/mL | 1 µg/mL (≈ 2.2 µM) | ≥ 256 µg/mL | MIC [22]: 1 µg/mL (≈ 2.2 µM); MIC [23]: 1 µg/mL (≈ 2.2 µM); MIC [25]: 1 µg/mL (≈ 2.2 µM)
CC(C)(O/N=C(\C(=O)N[C@@H]1C(=O)N2C(C(=O)[O-])=C(C[n+]3ccccc3)CS[C@H]12)c1csc(N)n1)C(=O)O [CEFTAZIDIME] | – | – | – | – | – | 0.25 µg/mL (≈ 0.457 µM) | – | 4 µg/mL | 4 µg/mL | 4 µg/mL | 4 µg/mL | 4 µg/mL | 4 µg/mL | 4 µg/mL | ≥ 256 µg/mL | ≥ 256 µg/mL | 1 µg/mL (≈ 1.83 µM) | 32 µg/mL (≈ 58.5 µM) | 32 µg/mL (≈ 58.5 µM) | ≥ 256 µg/mL | MIC [21]: 1 µg/mL (≈ 1.83 µM); MIC [22]: 16 µg/mL (≈ 29.3 µM); MIC [23]: 8 µg/mL (≈ 14.6 µM); MIC [24]: 1 µg/mL (≈ 1.83 µM); MIC [25]: 16 µg/mL (≈ 29.3 µM); MIC [26]: 1 µg/mL (≈ 1.83 µM)
CO/N=C(\C(=O)N[C@@H]1C(=O)N2C(C(=O)O)=C(CSc3nc(=O)c(O)nn3C)CS[C@H]12)c1csc(N)n1 [CEFTRIAXONE] | 8 µg/mL (≈ 14.4 µM) | 8 µg/mL (≈ 14.4 µM) | 8 µg/mL (≈ 14.4 µM) | 4 µg/mL (≈ 7.21 µM) | 1 µg/mL (≈ 1.8 µM) | 0.06 µg/mL (≈ 0.108 µM) | ≥ 256 µg/mL | – | – | – | – | – | – | – | – | – | – | – | – | – | –
